Assays:
rice seedlings = experiment: IAA sensitivity test on rice seedlings; type: in vivo
Protocol: Taking rice and lettuce for example, IAA sensitivity of the microbial preparation is tested in steps of: disinfecting and germinating rice seedlings; putting the rice seedlings in a sterilized Petri dish in which a filter paper is disposed; […]; moving the sterilized Petri dish into a plant growth box for 4 days; measuring an average height of buds of the rice seedlings and an average height of roots of the rice seedlings;

lettuce = experiment: IAA sensitivity test on lettuce; type: in vivo
Protocol: Taking rice and lettuce for example, IAA sensitivity of the microbial preparation is tested in steps of: disinfecting seeds of the lettuce with 5% sodium hypochlorite and putting the seeds of the lettuce in another sterilized Petri dish in which a filter paper is disposed; adding 3 mL of 0.03 μM, 3 μM, 30 μM, and 300 μM of IAA aqueous solutions respectively; moving another sterilized Petri dish into another plant growth box for 3 days; and measuring a germination rate and a height of each lettuce and a length of a root of each lettuce.

O=C(O)Cc1c[nH]c2ccccc12 [IAA]
growth of the roots of the rice seedlings (rice seedlings; IAA 0.03 μM to 30 μM, 4 days, FIG. 1): does not promote a growth of the roots
growth of the roots of the rice seedlings (rice seedlings; IAA 300 μM, 4 days, FIG. 1): limited
growth of the roots of the rice seedlings (rice seedlings; IAA within 0.00003 μM to 0.003 μM): do not grow obviously
growth of the lettuce seedlings (lettuce; IAA 0.03 μM (lowest concentration), 3 days): reduces a growth of the lettuce seedlings
height of lettuce sprouts (lettuce; IAA 0.03 μM, 3 days (no IAA: 5.3 mm)): 3.5 mm
length of lettuce roots (lettuce; IAA 0.03 μM, 3 days (no IAA: 14.8 mm)): 8.8 mm
germination rate of seeds of the lettuce (lettuce; IAA 300 μM, 3 days (no IAA: 78%)): 13%

Source: patent US20220167627A1, “Microbial preparation of bacillus” (priority 2020, published 2022)
